Assay results from patent US20050196375A1, “Methods of applying antibiotic compounds to polyurethane biomaterials using textile dyeing technology” (priority 2000, published 2005).

Columns and labels:
[1] = not given; remark: listed apart in the source

standard affinity of cipro for cPU (T 318.15 K, RT ln K): 4.69 kJ/mol
saturation value (as quoted in the description): 0.45 g/kg
exhaustion of cipro on cPU ([1]; applied concentration 0.5% owf, pH 8.6, 20:1, 45° C., 3.5 hours): about 60%
ciprofloxacin taken up by cPU ([1]; dyeing temperature 55° C., pH 8.6, 20:1, 2% owf, 3.5 hours): 70%
cipro exhausted on cPU ([1]; dyeing time 3.5 hours, pH 8.6, 20:1, 2% owf, 45° C.): about 61%
SMILES: O=C(O)c1cn(C2CC2)c2cc(N3CCNCC3)c(F)cc2c1=O [cipro, ciprofloxacin]
